Experimental data taken from BindingDB's records for doi:10.1016/s0960-894x(00)00321-8 (Dupont Pharmaceuticals, 2000).

Target: T1, Gag-Pol polyprotein [588-1027]/[588-1147] (Human immunodeficiency virus 1, UniProt P04585)
T1 construct: 588-1027; 588-1147
Test: HIV-1 RT Assay
Conditions: pH 8.2; 37 °C
From the text: The IC50 of reverse transcriptase is the concentration that inhibits 50% of recombinant HIV-1 RT RNA-directed DNA polymerase activity in vitro.

SMILES	IC50 [nM]
CC(C)C(=O)N1c2ccccc2NC(=O)C1(C#CC1CC1)C(F)(F)F (stereo not drawn) [3-(2-cyclopropylethynyl)-4-(2-methylpropanoyl)-3-(trifluoromethyl)-1,2,3,4-tetrahydroquinoxalin-2-one]	160
O=C(c1ccccc1)N1c2ccccc2NC(=O)C1(C#CC1CC1)C(F)(F)F (stereo not drawn) [4-benzoyl-3-(2-cyclopropylethynyl)-3-(trifluoromethyl)-1,2,3,4-tetrahydroquinoxalin-2-one]	> 5000
O=C(C1CC1)N1c2ccccc2NC(=O)C1(C#CC1CC1)C(F)(F)F (stereo not drawn) [4-cyclopropanecarbonyl-3-(2-cyclopropylethynyl)-3-(trifluoromethyl)-1,2,3,4-tetrahydroquinoxalin-2-one]	127
